According to US20250009844A1, “MATURATION OF MUCOSAL DEFENSE AND GUT/LUNG FUNCTION IN THE PRETERM INFANT” (Novozymes A/S, priority 2017, published 2025):
Entries after “also recorded” stand apart in the source; their conditions may differ. No end group written: not given here.

Legend:
[1] = test system: microbiota of the intestine; assay: Prophylactic high fat diet murine model, 16S microbial analyses (Example 1); assay type: in vivo, mice
Text: The overall experimental design is shown in FIG. 1, top panel “Prophylactic study”. Mice: Mice were housed in trios, 4 cages per group. Feed intake was registered daily just before lights were turned off at 6 pm. Individual mice were subjected to experimental procedures in altered order both group and cage wise. Mice were kept at room temperature under a 12-hour light/dark cycle at SPF standard conditions. Diets: For dosing, the average weight was estimated to be 25 grams per mouse. Mice eat approximately 3 grams of feed per mouse per day.
Treatment regime: Mice were fed either a high fat diet (HFD) or a low fat (LF) control diet. The HFD contained 4 subgroups; a) hBD-2, b) HD5, c) hBD-2/HD5 and d) standard HFD without supplementation of defensins. Defensin concentration was 1,2 mg hBD-2 per kg mouse per day. HD5 was given in equimolar concentration to hBD-2.
(§1) Microbial analyses were carried out to study the microbiota of the intestine. Longitudinal 16S characterization was conducted on 4 paired samples from 60 mice, 240 samples in total. Each mouse was sampled prior to diet change, 1 week post diet change, 4 weeks post diet change and at termination, thus ensuring a thorough characterization of the faecal microbiota as a result of defensin treatment.

[2] = Therapeutic high fat diet model in diet-induced obese mice, weight and fat percentage (Example 2); assay type: in vivo
Text: (§2) The overall design of the study is shown in FIG. 1, lower panel, “Therapeutic study”. Mice and diets. The experiment elucidates the effect of hBD-2 and HD5 on the microbiota in diet-induced obese mice. A run-in period of 13 weeks where mice were fed a very HFD (60% energy from fat) preceded the intervention. Only mice meeting the criteria of a minimum of 12 gram weight gain (approximately 50% of initial bodyweight) during the run-in period were included in the final analyses. […] They were exposed to all experimental tests, but excluded from the analyses.
(§3) Treatment regimen. Before the intervention all mice were MR scanned. Cages of mice were allocated to experimental groups based on their fat mass. All subsequent measures were paired with data from the same mouse before the intervention. A LFD (low fat diet) reference group was running in parallel. As controls for the intervention 2 additional groups were included: a) very HFD and b) LFD. Experimental mice stayed on the very HFD during the intervention. The mice were on the experimental diet for 10 weeks. They were co-housed throughout the experiment, 4 mice per cage, 3 cages per group. All tests ran over 3 days, 1 cage per group per day.

[3] = test system: microbiota of the intestine; assay: Therapeutic high fat diet model in diet-induced obese mice, 16S microbial analyses (Example 2); assay type: in vivo
Text: as §2, §3, §1

[4] = test system: PBMC cells; assay: PBMC cell viability, Alamar Blue, 24 hours (Example 8); assay type: cell-based, human; details: 1, 10 and 40 μg/ml, 0.6 and 20.0 pg/ml LPS
Procedure: FIG. 39. Cell viability of PBMC cells following exposure for 24 hours to Alamar Blue and HD5, hBD-1, hBD-2, hBD-3 and hBD-4 at concentrations of 1, 10 and 40 μg/ml.
PBMC cell viability following exposure for 24 hours to Alamar Blue and HD5,hBD-1, hBD-2, hBD-3 and hBD-4 at concentrations of 1, 10 and 40 μg/ml at 0.6 and 20.0 pg/ml LPS respectively (FIG. 39).

[5] = test system: BALB/c mice; assay: Murine model of acute graft versus host disease, oral HD5 (Example 13); assay type: in vivo
Procedure: Treatment regime: 22 female BALB/c mice were irradiated with 4.5 Gy (2×498 sec) at intervals of at least 4 hours on day 0. Bone marrow was harvested: hind limbs harvested from 2 female WT C57BL/6 mice aseptically. Skeletal muscle was removed and epiphysis cut away. Lumen of bone flushed with PBS and cells pelleted and taken up. Harvest of T-cells: spleens from 2 female WT C57BL/6 mice were meshed through a […] cell strainer into a PBS filled dish. Cells were taken up in PBS and transferred into a 50 mL falcon tube and spun down. Cells were taken up in 1 mL PBS and 20 μL of CD4 microbead +20 μL CD8 microbeads per spleen added for incubation for 20 min at 4 degrees C. Cells were washed with PBS and applied to MACS separation in order to positively select CD4+ and CD8+ cells. Positively selected T-cells were counted and taken up. Transplantation: directly after the second irradiation, all WT BALB/c recipient mice were injected with 5×1.000.000 BM cells (50 μL) i.v. into the retroorbital venous plexus under isoflurane anesthesia. 22 BALB/c mice were treated with 1.2 mg of HD5/kg BW/day; 1.2 mg of hBD-2/kg BW/day or 100 μL of PBS per day vial oral gavage from day 0-10.
Survival was monitored for 60 days.

[6] = test system: bacteria localization at the surface of the intestinal mucosa; assay: Localization of bacteria by FISH with mucin immunostaining, lysis zone (Example 14); assay type: in vivo; details: orally administered; compared with mice on a low fat or western diet
Procedure: Immunostaining of mucins and localization of bacteria by FISH Mucus immunostaining was paired with fluorescent in situ hybridization (FISH), as previously described in order to analyze bacteria localization at the surface of the intestinal mucosa. Briefly, colonic tissues (proximal colon, 2nd cm from the cecum) without fecal material were placed in methanol-Carnoy's fixative solution (60% methanol, 30% chloroform, 10% glacial acetic acid) for a minimum of 3 hours at room temperature. Tissues were then washed in methanol 2×30 min, ethanol 2×15 min, ethanol/xylene (1:1), 15 min and xylene 2×15 min, followed by embedding in Paraffin with a vertical orientation. Five μm sections were performed and dewax by preheating at 60° C. for 10 min, followed by xylene 60° C. for 10 min, xylene for 10 min and 99.5% ethanol for 10 minutes. Hybridization step was performed at 50° C. overnight with EUB338 probe (5′-GCTGCCTCCCGTAGGAGT-3′, with a 5′ labeling using Alexa 647) diluted to a final concentration of 10 μg/mL in hybridization buffer (20 mM Tris-HCl, pH 7.4, 0.9 M NaCl, 0.1% SDS, 20% formamide). After washing 10 min in wash buffer (20 mM Tris-HCl, pH 7.4, 0.9 M NaCl) and 3×10 min in PBS, PAP pen (Sigma-Aldrich) was used to mark around the section and block solution (5% fetal bovine serum in PBS) was added for 30 min at 4° C. […]

[7] = test system: neonatal rat model; details: cited from earlier work
[8] = test system: gut epithelial cell lines; details: cited from earlier work
[9] = test system: SCID mice; assay: Therapeutic, murine, 14 weeks, CD4+CD25+ T cell transfer induced colitis model (Example 4); assay type: in vivo
Text: Treatment regime: 70 female BALB/c mice housed in groups of five per cage were allocated to 7 different treatment groups. Colitis was induced in SCID mice by transplantation of CD4+CD25 Tcells from BALB/c mice. Lymphocytes isolated from spleen and lymph nodes from BALB/c mice were subjected to negative selection of CD4+Tcells. Afterwards, CD4+CD25+cells were positively isolated by binding to the beads from the CD4+Tcell suspensions and the CD4+CD25—were collected from the supernatant. The animals were treated with hBD-2, 0.1 mg/kg s.c. once daily 86consecutive days from day 7 (OD); 1 mg/kg s.c. OD or 3 mg/kg s.c. OD;with mouse anti TNFa 100 μg/mouse s.c. twice weekly (enbrel); with dexamethasone 0.3 mg/kg intraperitoneally OD (dex); with PBS s.c. as vehicle from day 7 and 86 consecutive days (vehicle) or sham treated (sham).
Treatment groups: • 1. 0.1 mg/kg hBD-2, once daily subcutaneously (n=11) • 2. 1 mg/kg hBD-2, once daily subcutaneously (n=11) • 3. 3 mg/kg hBD-2, once daily subcutaneously (n=11) • 4. PBS (hBD-2 vehicle), once daily subcutaneously (n=11) • 5. 0.3 mg/kg Dexamethasone, once daily intraperitoneally (n=11) • 6. 100 μg/mouse soluble human 75-kilodalton TNF receptor linked to Fc portion of IgG1 (Enbrel), twice a week subcutaneously (n=11) • 7. Sham treated group (n=6)
Clinical assessment was based on body weight loss, stool consistency and presence of blood per rectum. The animals were sacrificed on day 95 and colon removed for assessment of weight and myeloperoxidase activity.

[10] = same three dosing regimens, sacrifice day 95

Q: What does the source list for “human intestinal alpha defensin 5 (ATCYCRTGRCATRESLSGVCEISGRLYRLCCR; listed as Homo sapiens) [HD5]”?
A: Microbial presence and abundance (unifrac, genus analysis) ([1]; prophylactic oral defensin in HFD, 1,2 mg hBD-2 per kg per day, HD5 equimolar, mix 50%+50%): affected primarily the microbial abundance; Abundance of Allobaculum ([1]; small intestine, prophylaxis, p<0.02): statistically significant increase of abundance of Allobaculum; Fat percentage ([2]; 4 weeks after dietary change, HFD plus HD5 vs HFD control, p=0.009): significantly lower fat percentage; Fat percentage, course ([2]; HFD plus HD5 group after dietary intervention): tendency of decreasing fat percentage; Weight gain ([2]; after dietary intervention, HFD plus HD5 vs HFD control, p<0.05): gained significantly less weight than the HFD control; Abundance of Alloprevotella ([3]; colon, therapeutic intervention, HD5 p<0.02): increased the abundance of Alloprevotella statistically significantly; Relative abundance of Bifidobacteriaceae ([3]; small intestine, hBD-2 p<0.0001): trend towards HD5 increasing the abundance of Bifidobacteriaceae; Toxicity (PBMC cell viability) [4]: not toxic irrespectively of concentration; also recorded: not to be toxic; Animals that had died by day 60 ([5]; 1.2 mg/kg BW/day oral gavage day 0-10, HD5 group of 8, PBS six out of eight died): 2; Mortality ([5]; 22 mice, oral treatment for 10 days): significant reduction of mortality; Distance from the intestinal lining to bacterial population (lysis zone) [6]: profound effect on the distance

Q: With “human beta defensin 1 (DHYNCVSSGGQCLYSACPIFTKIQGTCYRGKAKCCK; ends and bridges not checked; cysteine pairing not given here; listed as Homo sapiens) [hBD-1]” as the substance, how does the “Toxicity (PBMC cell viability)” value [4] read?
A: not toxic irrespectively of concentration; also recorded: not to be toxic

Q: Which results are given for “human beta defensin 3 (GIINTLQKYYCRVRGGRCAVLSCLPKEEQIGKCSTRGRKCCRRK; ends and bridges not checked; cysteine pairing not given here; listed as Homo sapiens) [hBD-3]”?
A: Toxicity (PBMC cell viability) [4]: profoundly increasing toxicity; also recorded: toxic; Incidence of NEC [7]: decrease the incidence of NEC; Toxicity [8]: not to be toxic

Q: For Enbrel [reference compound], which “Clinical score (body weight loss, stool consistency, blood per rectum)” value ([9]; hBD-2 1 mg/kg s.c. OD, Dexamethasone 0.3 mg/kg i.p. OD, Enbrel 100 μg/mouse s.c. twice weekly, from day 7) is on record?
A: statistically significant and similar effect on clinical score

Q: And the Colon weight [9, 10]?
A: statistically significant and similar effect on colon weight

Q: And the “Myeloperoxidase activity in intestinal tissue” value [9, 10]?
A: statistically significant and similar effect

Q: Which “Toxicity (PBMC cell viability)” value [4] does the source give for “human beta defensin 4 (ELDRICGYGTARCRKKCRSQEYRIGRCPNTYACCLRK; ends and bridges not checked; cysteine pairing not given here; listed as Homo sapiens) [hBD-4]” here?
A: moderately increasing toxicity; also recorded: moderately toxic
